Assay results reported in patent US7759459B2, “Fluorescent assays for protein kinases” (Albert Einstein College of Medicine of Yeshiva University, priority 2003, dated 2010).
Blank lines part the entries; values can stand above or below the molecule they belong to. Numbered stars: 1 amine (or outer) side, 2 acyl side, 3 side chain; on linkers, the order of the positions; unused ones are H or OH. Square brackets hold non-standard residues; d marks the D form. Peptide text beside a SMILES is read from it. * marks the point of attachment. X2 = O=C(O)CN(CC(=O)O)c1ccc(-c2c3cc(F)c(=O)cc-3oc3cc(O)c(F)cc23)cc1OCC(=O)*; X1 = O=C([C@H](CO)N(c1ccc([N+](=O)[O-])c2nonc12)[*:1])[*:2]; Acridine9carbonyl = O=C(c1c2ccccc2nc2ccccc12)*; Dansyl = CN(C)c1cccc2c(S(=O)(=O)*)cccc12; Cysteamide = C(CS[*:3])N[*:1]; Sar = CNCC(=O)O

Key:
[1] = molecular target: T1, PKCα (Homo sapiens, UniProt P17252); experiment: Fluorescent PKC assay (spectrofluorimetry); format: biochemical; conditions: for Fluorescence enhancement upon phosphorylation (% Change): PKCα-catalyzed phosphorylation, spectrofluorimetry
Procedure: (§1) Fluorescent PKC assay-Fluorescence assays were performed in triplicate at 30° C. and initiated by addition of ATP to a 100 μL cuvette containing a 50 μL solution of PKC and peptide substrate 2. Final conditions: 62.5 mM HEPES pH 7.4, 3 mM MgCl2, 0.3 mM CaCl2, 0.1 mM EGTA, 1 mM DTT, 0.5 μg/mL phosphatidylserine, 0.1 μg/mL diacylglycerol, 1 mM ATP, and 13 nM PKC. After the addition of ATP, the solution was gently mixed and the time-dependent change in fluorescent intensity (excitation: 520 nm, emission: […]) continuously monitored with a Photon Technology QM-1 spectrofluorimeter.

[2] = system: protein kinase C; experiment: Screen of fluorophore-peptide library for fluorescence change in the presence of PKC and ATP; format: biochemical; conditions: Table 3 library
Procedure: as §1
The peptide H2N-Ser-Phe-Arg-Arg-Arg-Arg-Lys-amide (1) (SEQ ID NO:2) was prepared using an Fmoc-based protocol, spatially segregated, and the free N-terminal amine subsequently modified with an array of fluorophore-containing carboxylic acids (I), aromatic aldehydes (II), and electron deficient aryl halides (III). […] This spatially segregated fluorophore-substituted peptide-based library contains a total of 415 distinct chemical entities (Table 3) and was screened for changes in fluorescence intensity in the presence of PKC and ATP under activating conditions. […] The obvious explanation is that phosphorylation of the peptide fails to induce the desired change in photophysical properties of the appended fluorophore. However, it is also possible that introduction of fluorophores, at various sites along the peptide framework, interferes with PKC-catalyzed phosphorylation. The latter possibility is unlikely, particularly for simple N-monosubstituted peptides, since PKC will phosphorylate peptides containing a wide variety of structurally diverse functionality attached at and/or near the phosphorylatable serine moiety.^24 Nevertheless, a few representative members of the library were evaluated in depth (Table 1). […]. One explanation for the poor fluorescence response of these particular peptides to PKC/ATP could be that these peptides serve as poor PKC substrates. This possibility was addressed by obtaining the PKCα-catalyzed Km and Vmax values using the [γ-^32P]ATP radioactive method.^25 As is clear from Table 1, all five peptides are reasonably effective substrates for PKCα.
Table 3. Structures of 415 compounds tested. The % change observed in fluorescence intensity upon phosphorylation of the compound by protein kinase C is shown in the right column. […] The compound labeled as compound 21 in Table 3 is the same as compound 2 in Example I, which is also shown in Scheme 2.

[3] = system: PKC in HeLa cells; experiment: Microinjection studies in TPA-stimulated living HeLa cells; format: cell-based; conditions: co-injected with peptide 2; 20 μM estimated intracellular concentration
Procedure: Microinjection Studies-Subconfluent, serum-starved (24 hr), HeLa cells were cultured on 22 mm coverslips in DMEM in a humidified atmosphere containing 5% CO2. […] Microinjections were performed with an Eppendorf (Brinkman Instruments, Westbury, N.Y.) 5246 microinjection apparatus mounted on the microscope inside the environmental chamber. The peptide was estimated to be diluted 10-fold upon microinjection, using the equation for volume (V) flow through a capillary tube:
[formula] where p is the difference in pressure at the ends of the tube (290 hPa), r the radius (0.05 μm) and l the length (10 μm) of the tube, η the viscosity of the injected solution (0.69×10^−2 g/cm-sec), and t the total injection time (0.3 sec). The average volume of a fibroblast was taken as 2 pL.^18 12-O-tetradecanoyl phorbol-13-acetate (TPA) (1 μM) was added to the media following microinjection to stimulate PKC activity. […] Fluorescence intensity measurements were corrected using values from a standard photobleaching curve generated from control experiments with microinjected HeLa cells that had not been treated with TPA. […]

[4] = molecular target: PKC; conditions: cited from earlier work
[5] = molecular target: T1, PKCα; experiment: Protein kinase C assay (Example II); format: biochemical; conditions: for % Change Fluorescence: upon PKC-catalyzed phosphorylation; for Km / Vmax: PKC-catalyzed phosphorylation
Procedure: Protein kinase C assay. The kinase-catalyzed reaction was performed in triplicate at 30° C. and initiated by addition of ATP to a solution of PKCα and fluorophore-appended peptide substrate 23 (except in the case of the library, where the assays were performed in a 96 well plate using a fluorescence plate reader). Final conditions: 62.5 mM HEPES, 3 mM MgCl2, 0.3 mM CaCl2, 0.1 mM EGTA, 1 mM DTT, 0.5 μg/mL phosphatidylserine, 0.1 μg/mL diacylglycerol, 1 mM ATP, and 13 nM PKCα (pH 7.4). After the addition of ATP, the solution was gently mixed and the time-dependent change in fluorescent intensity (λexcitation=[…]; λemission=521 nm) continuously monitored with a Photon Technology QM-1 spectrofluorimeter.

[6] = molecular target: T1, PKCα; experiment: Radioactive PKC assay ([γ-32P]ATP); format: biochemical; conditions: Table 2
Procedure: Radioactive PKC Assay—Radioactive assays were performed in duplicate at 30° C. The final assay volume totaled 40 μl and contained 62.5 mM HEPES (pH 7.4), 0.75 mM CaCl2, 12.5 mM MgCl2, 1 mM dithiothreitol, 0.5 mM EGTA, 7.5 μg/mL phosphatidylserine, 1.6 μg/mL diacylglycerol, and 10 ng of PKC. […] Phosphorylation reactions were initiated by the addition of 10 μL of PKC from a stock solution (20 mM Tris-HCl at pH 7.5, 1 mM dithiothreitol, 1 mM EDTA, and 0.75 mg/mL bovine serum albumin) into 30 μL of assay buffer containing peptide substrate. Reactions were terminated after 5 min by spotting 25 μL aliquots onto phosphocellulose paper disks (2.1 cm in diameter). After 10 s, the disks were immersed in 10% glacial acetic acid and soaked with occasional stirring for at least 1 h. The acetic acid was decanted and the disks were collectively washed with four volumes of 0.5% H3PO4, 1 volume of water, followed by a final acetone rinse. The disks were air dried and then counted in a Beckman LS scintillation counter.

Fluorescence enhancement upon phosphorylation (% Change) [1]: 150%
Molecule: N=C(N)NCCC[C@H](NC(=O)[C@H](CCCNC(=N)N)NC(=O)[C@H](CCCNC(=N)N)NC(=O)[C@H](CCCNC(=N)N)NC(=O)[C@H](Cc1ccccc1)NC(=O)[C@H](CO)Nc1ccc([N+](=O)[O-])c2nonc12)C(=O)N[C@@H](CCCCN)C(N)=O (H-[X1]FRRRRK-NH2)

% change observed in fluorescence intensity upon phosphorylation of the compound by protein kinase C [2]: <10%
Molecule: N#CC1=c2cc3ccccc3cc2=CC1C(CO)C(=O)NC(O)C(=O)NC(C(=O)NC(NC(=N)N)C(=O)NC(NC(=N)N)C(=O)NC(NC(=N)N)C(=O)NC(NC(=N)N)C(=O)NC(N)C(N)=O)c1ccccc1 (centres unmarked) [Compound 90]

% change observed in fluorescence intensity upon phosphorylation of the compound by protein kinase C [2]: <10%
Molecule: N=C(N)NC(NC(=O)C(NC(=N)N)NC(=O)C(NC(=N)N)NC(=O)C(NC(=N)N)NC(=O)C(NC(=O)C(O)NC(=O)C(CO)C1C=c2cc3ccccc3cc2=C1SC(=N)N)c1ccccc1)C(=O)NC(N)C(N)=O (centres unmarked) [Compound 91]

% change observed in fluorescence intensity upon phosphorylation of the compound by protein kinase C [2]: <10%
Molecule: N=C(N)NNC1=c2cc3ccccc3cc2=CC1C(CO)C(=O)NC(C(=O)NC(NC(=N)N)C(=O)NC(NC(=N)N)C(=O)NC(NC(=N)N)C(=O)NC(NC(=N)N)C(=O)NC(N)C(N)=O)c1ccccc1 (centres unmarked) [Compound 92]

% Change Fluorescence [5]: 264%
Molecule: CN(CC(=O)N[C@@H](CO)C(=O)N[C@@H](Cc1ccccc1)C(=O)N[C@@H](CCCNC(=N)N)C(=O)N[C@@H](CCCNC(=N)N)C(=O)N[C@@H](CCCNC(=N)N)C(=O)N[C@@H](CCCNC(=N)N)C(=O)NCCS)C(=O)COc1cc(-c2c3cc(F)c(=O)cc-3oc3cc(O)c(F)cc23)ccc1N(CC(=O)O)CC(=O)O [N-Me glycine] (X2-[Sar]SFRRRR-Cysteamide)

Km [5]: 23.5 µM | Vmax [5]: 1.0 µmol/min/mg | % Change Fluorescence [5]: 156%
Molecule: D-proline

Km [5]: 63 µM | Vmax [5]: 1.9 µmol/min/mg | % Change Fluorescence [5]: 150%
Molecule: L-proline

Further lines, the molecule ahead of its results:

Molecule: N=C(N)NCCC[C@H](NC(=O)[C@H](CCCNC(=N)N)NC(=O)[C@H](CCCNC(=N)N)NC(=O)[C@H](CCCNC(=N)N)NC(=O)[C@H](Cc1ccccc1)NC(=O)[C@H](CO)NC(=O)c1c2ccccc2nc2ccccc12)C(=O)N[C@@H](CCCCN)C(N)=O (Acridine9carbonyl-SFRRRRK-NH2)
Fluorescence enhancement upon phosphorylation (% Change) [1]: 20%

Molecule: CN(C)c1cccc2c(S(=O)(=O)N[C@@H](CO)C(=O)N[C@@H](Cc3ccccc3)C(=O)N[C@@H](CCCNC(=N)N)C(=O)N[C@@H](CCCNC(=N)N)C(=O)N[C@@H](CCCNC(=N)N)C(=O)N[C@@H](CCCNC(=N)N)C(=O)N[C@@H](CCCCN)C(N)=O)cccc12 (Dansyl-SFRRRRK-NH2)
Fluorescence enhancement upon phosphorylation (% Change) [1]: 20%

Molecule: COCCN(CCOC)C1=c2cc3ccccc3cc2=CC1C(CO)C(=O)NC(C(=O)NC(NC(=N)N)C(=O)NC(NC(=N)N)C(=O)NC(NC(=N)N)C(=O)NC(NC(=N)N)C(=O)NC(N)C(N)=O)c1ccccc1 (centres unmarked) [Compound 93]
% change observed in fluorescence intensity upon phosphorylation of the compound by protein kinase C [2]: <10%

Molecule: CN(C)CCCn1cc(C2=C(c3c[nH]c4ccccc34)C(=O)NC2=O)c2ccccc21 [GF 109203X]
effect of inhibitor on TPA-induced enhancement in cellular fluorescence [3]: effectively blocks the TPA-induced enhancement in cellular fluorescence | Ki [4]: low nanomolar range

Molecule: CNCC(=O)O [N-methyl glycine]
% Change Fluorescence [5]: 264%

Molecule: H2N-Ser-Phe-Arg4-Lys(NBD)-amide [peptide 3]
Km [6]: 19 ± 1 µM | kcat [6]: 3.5 ± 0.167 s⁻¹ | fluorescence intensity change following phosphorylation (in words) ([1]; PKC/ATP, fluorescence assay): No Fluorescence Intensity Change
